# Source: patent publication US20250034216A1, “STEREOSELECTIVE COVALENT LIGANDS FOR ONCOGENIC AND IMMUNOLOGICAL PROTEINS” (The Scripps Research Institute, priority 2021, published 2025)
# Target: T1, WAPL_C1133 (Homo sapiens, UniProt Q7Z5K2)
# T1 construct: endogenous in cells; host or cells: 22Rv1
# T1 sequence (Q7Z5K2 1-1190): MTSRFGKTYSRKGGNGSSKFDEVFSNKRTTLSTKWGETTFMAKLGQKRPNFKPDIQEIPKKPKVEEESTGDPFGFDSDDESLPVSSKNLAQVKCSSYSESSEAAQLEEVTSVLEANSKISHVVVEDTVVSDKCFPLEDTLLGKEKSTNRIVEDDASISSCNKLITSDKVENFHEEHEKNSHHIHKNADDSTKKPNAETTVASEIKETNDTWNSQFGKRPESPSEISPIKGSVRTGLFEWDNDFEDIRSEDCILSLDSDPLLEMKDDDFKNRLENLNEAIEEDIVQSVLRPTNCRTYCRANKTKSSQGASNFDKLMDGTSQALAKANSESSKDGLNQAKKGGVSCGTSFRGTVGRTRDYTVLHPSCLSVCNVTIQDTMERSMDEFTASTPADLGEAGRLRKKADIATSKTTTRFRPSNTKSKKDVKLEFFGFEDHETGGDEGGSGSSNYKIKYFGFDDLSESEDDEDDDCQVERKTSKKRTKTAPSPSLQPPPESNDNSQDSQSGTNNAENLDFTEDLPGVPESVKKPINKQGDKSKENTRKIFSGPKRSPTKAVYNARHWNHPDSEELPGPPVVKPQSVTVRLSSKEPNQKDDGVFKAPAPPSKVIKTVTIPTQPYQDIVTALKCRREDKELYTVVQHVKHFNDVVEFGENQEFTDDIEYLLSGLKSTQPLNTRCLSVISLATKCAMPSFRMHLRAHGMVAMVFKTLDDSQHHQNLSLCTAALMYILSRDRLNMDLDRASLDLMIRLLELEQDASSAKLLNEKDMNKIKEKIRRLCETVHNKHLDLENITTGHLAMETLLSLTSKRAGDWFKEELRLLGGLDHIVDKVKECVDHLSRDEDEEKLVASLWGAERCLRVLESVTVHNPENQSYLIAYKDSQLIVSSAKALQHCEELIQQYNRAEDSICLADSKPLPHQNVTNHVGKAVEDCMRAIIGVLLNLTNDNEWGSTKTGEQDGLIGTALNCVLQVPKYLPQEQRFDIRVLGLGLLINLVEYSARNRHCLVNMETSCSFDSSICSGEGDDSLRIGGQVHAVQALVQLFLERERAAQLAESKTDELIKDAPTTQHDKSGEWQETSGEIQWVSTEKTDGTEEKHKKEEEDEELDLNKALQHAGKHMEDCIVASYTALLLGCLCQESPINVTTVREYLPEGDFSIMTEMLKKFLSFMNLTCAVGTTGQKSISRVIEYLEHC
# Assay: IA-DTB cysteine engagement
# Assay type: binding
# Conditions: 22Rv1 cells, 20 μM probe, 1 h, relative to DMSO
# In short: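 Probe-exposed cells were lysed, IA-DTB-labeled, trypsinized and streptavidin-enriched. Multiplexed TMT quantitation gave engagement ratios versus DMSO, with non-tryptic peptides excluded and intensities normalized to median summed signal.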
row,SMILES,% engagement WAPL_C1133 [%]
1,"C=CC(=O)N1C[C@@H](c2ccc(Br)cc2)[C@H]1C(=O)Nc1cccc2cccnc12 [MY-1A, (2S,3R)-1-acryloyl-3-(4-bromophenyl)-N-(quinolin-8-yl)azetidine-2-carboxamide]",18
2,"C=CC(=O)N1C[C@H](c2ccc(Br)cc2)[C@@H]1C(=O)Nc1cccc2cccnc12 [MY-1B, (2R,3S)-1-acryloyl-3-(4-bromophenyl)-N-(quinolin-8-yl)azetidine-2-carboxamide]",34
3,"C=CC(=O)N1C[C@H](c2ccc(Br)cc2)[C@H]1C(=O)Nc1cccc2cccnc12 [MY-3A, (2S,3S)-1-acryloyl-3-(4-bromophenyl)-N-(quinolin-8-yl)azetidine-2-carboxamide]",78.5
4,"C=CC(=O)N1C[C@H](c2ccc(Br)cc2)[C@H]1C(=O)Nc1cccc2cccnc12 [MY-3B, (2S,3S)-1-acryloyl-3-(4-bromophenyl)-N-(quinolin-8-yl)azetidine-2-carboxamide]",46
